Data reported in ChEMBL document CHEMBL4680250, “Identification of tetracyclic lactams as NMDA receptor antagonists with potential application in neurological disorders” (Eur J Med Chem, 2020).
pIC50, pKi: −log10 of the molar value.

Key:
Glutamate NMDA receptor [1] = experiment: Antagonist activity at NMDAR in embryonic cultures of rat cortical neuron assessed as inhibition of NMDA-induced calcium influx at 30 uM preincubated for 10 mins followed by NMDA addition by Fluo-4/AM dye based fluorescence assay relative to control; assay type: tissue-based; settings: for pIC50: read-out: IC50
Glutamate NMDA receptor [2] = experiment: Antagonist activity at NMDAR in embryonic cultures of rat cortical neuron assessed as inhibition of NMDA-induced calcium influx preincubated for 10 mins followed by NMDA addition by Fluo-4/AM dye based fluorescence assay; assay type: tissue-based
HEK293 = experiment: Cytotoxicity against HEK293 cells assessed as reduction in cell viability by MTT assay; assay type: cell-based; settings: Homo sapiens
HepG2 = experiment: Cytotoxicity against human HepG2 cells assessed as reduction in cell viability by MTT assay; assay type: cell-based
[3] = Permeability of compound in PBS at pH 7.4 incubated for 120 mins by UV spectroscopy assay based PAMPA-BBB assay; assay type: ADME; settings: read-out: permeability
[4] = target: Glutamate [NMDA] receptor; experiment: Binding affinity to NMDAR (unknown origin); assay type: protein-complex assay, Homo sapiens

## O=C1CC[C@@]2(c3ccc(F)cc3)O[C@@H]3Cc4ccccc4[C@@H]3N12
Glutamate NMDA receptor [1]
  pIC50: 4.25
Glutamate NMDA receptor [2]
  pIC50: 4.77
HEK293
  pIC50: < 4.00
HepG2
  pIC50: < 4.00
[3]
  Papp at 2 h: 242 nm/s

## C[C@@H]1CC(=O)N2[C@H]3c4ccccc4C[C@@H]3O[C@@]12c1ccc(Cl)cc1
Glutamate NMDA receptor [1]
  pIC50: 4.49

## C[C@H]1CC(=O)N2[C@H]3c4ccccc4C[C@H]3O[C@]12c1ccc(Cl)cc1
Glutamate NMDA receptor [1]
  pIC50: 4.10
Glutamate NMDA receptor [2]
  pIC50: 4.77
HEK293
  pIC50: < 4.00
HepG2
  pIC50: < 4.00

## Cc1ccc([C@@]23CCC(=O)N2[C@H]2c4ccccc4C[C@H]2O3)cc1
Glutamate NMDA receptor [1]
  pIC50: 4.34
Glutamate NMDA receptor [2]
  pIC50: 4.62

## C[C@H]1CC(=O)N2[C@H]3c4ccccc4C[C@@H]3O[C@@]12c1ccc(Cl)cc1
Glutamate NMDA receptor [1]
  pIC50: 4.21
Glutamate NMDA receptor [2]
  pIC50: 4.64

## O=C1CC[C@]2(c3ccc(F)cc3)O[C@H]3Cc4ccccc4[C@@H]3N12
Glutamate NMDA receptor [1]
  pIC50: 4.21
Glutamate NMDA receptor [2]
  pIC50: 4.82
HEK293
  pIC50: < 4.00
HepG2
  pIC50: < 4.00

## C[C@@H]1CC(=O)N2[C@H]3c4ccccc4C[C@H]3O[C@]12c1ccc(Cl)cc1
Glutamate NMDA receptor [1]
  pIC50: 4.16
Glutamate NMDA receptor [2]
  pIC50: 4.89
HEK293
  pIC50: 4.34
HepG2
  pIC50: 4.47

## c1ccc2c(c1)C[C@H]1N[C@@H]2c2ccccc21
[4]
  pKi: 7.43

## COc1ccc([C@@]23CCC(=O)N2[C@H]2c4ccccc4C[C@H]2O3)cc1
Glutamate NMDA receptor [1]
  pIC50: 5.40

## CS(=O)(=O)c1ccc([C@@]23CCC(=O)N2[C@H]2c4ccccc4C[C@H]2O3)cc1
Glutamate NMDA receptor [1]
  IC50: Not Active

## O=C1CC[C@@]2(c3ccc(Cl)cc3)O[C@@H]3Cc4ccccc4[C@@H]3N12
Glutamate NMDA receptor [1]
  pIC50: 4.09
Glutamate NMDA receptor [2]
  pIC50: 4.77
HEK293
  pIC50: < 4.00
HepG2
  pIC50: < 4.00
[3]
  Papp at 2 h: 192 nm/s

## CC[C@@]1(c2ccccc2Cl)CCCCC1=O
[4]
  pKi: 6.18

## O=C1CC[C@]2(c3ccc(Cl)cc3)O[C@H]3Cc4ccccc4[C@@H]3N12
Glutamate NMDA receptor [1]
  pIC50: 4.19
Glutamate NMDA receptor [2]
  pIC50: 4.89
HEK293
  pIC50: < 4.00
HepG2
  pIC50: < 4.00
[3]
  Papp at 2 h: 158 nm/s

## O=C1CC[C@@]2(c3ccc(Br)cc3)O[C@@H]3Cc4ccccc4[C@@H]3N12
Glutamate NMDA receptor [1]
  pIC50: 4.14
Glutamate NMDA receptor [2]
  pIC50: 4.80
HEK293
  pIC50: < 4.00
HepG2
  pIC50: < 4.00
[3]
  Papp at 2 h: 123 nm/s

## O=C1CC[C@]2(c3ccc(Br)cc3)O[C@H]3Cc4ccccc4[C@@H]3N12
Glutamate NMDA receptor [1]
  pIC50: 4.18
Glutamate NMDA receptor [2]
  pIC50: 4.96
HEK293
  pIC50: < 4.00
HepG2
  pIC50: < 4.00
[3]
  Papp at 2 h: 112 nm/s

## O=C1CC[C@@]2(c3ccccc3)O[C@H]3Cc4ccccc4[C@@H]3N12
Glutamate NMDA receptor [1]
  pIC50: 4.54

## Cc1ccc([C@@]23CCC(=O)N2[C@H]2c4ccccc4C[C@H]2O3)cc1Cl
Glutamate NMDA receptor [1]
  pIC50: 4.20
Glutamate NMDA receptor [2]
  pIC50: 4.92
HEK293
  pIC50: < 4.00
HepG2
  pIC50: < 4.00

## O=C1CCC[C@@]2(c3ccccc3)O[C@@H]3Cc4ccccc4[C@@H]3N12
Glutamate NMDA receptor [1]
  pIC50: 4.89

## COc1ccc([C@@]23CCC(=O)N2[C@H]2c4ccccc4CC2O3)cc1F (single isomer, unassigned)
Glutamate NMDA receptor [1]
  pIC50: 4.89

## Cc1ccc([C@]23CCC(=O)N2C2c4ccccc4C[C@@H]2O3)cc1Cl (single isomer, unassigned)
Glutamate NMDA receptor [1]
  pIC50: 4.31

## N[C@@H](Cc1ccccn1)c1ccccc1 [LANICEMINE]
[4]
  pKi: 6.25

## c1ccc(C2(N3CCCCC3)CCCCC2)cc1 [PHENCYCLIDINE]
[4]
  pKi: 7.23
